Data as given in publication PMC9127750, “Structure-based design of CDC42 effector interaction inhibitors for the treatment of cancer” (Cell reports, 2022).

System: WM3248 melanoma cells, 486 antibodies
Assay: Reverse phase protein arrays (RPPA);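 on RPPA ACC1.R.C: ratio of treated to vehicle (0 µM) normalized linear protein signal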;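 on RPPA AMPK.a2 pS345.R.V: ratio of treated to vehicle (0 µM) normalized linear protein signal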;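 on RPPA AMPKa pT172.R.C: ratio of treated to vehicle (0 µM) normalized linear protein signal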;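 on RPPA ASNS.R.V: ratio of treated to vehicle (0 µM) normalized linear protein signal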;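 on RPPA AceCS1.R.V: ratio of treated to vehicle (0 µM) normalized linear protein signal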;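 on RPPA Akt1.R.V: ratio of treated to vehicle (0 µM) normalized linear protein signal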;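 on RPPA Atg5.R.C: ratio of treated to vehicle (0 µM) normalized linear protein signal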;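 on RPPA Bim.R.V: ratio of treated to vehicle (0 µM) normalized linear protein signal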
Assay type: cell-based, Human
Conditions: 20 uM
Source text: Pellets were snap frozen in liquid nitrogen and shipped to MD Anderson Cancer Center core RPPA facility for RPPA analysis (Table S5). Three biological replicates for each sample were generated.
Nomenclatures on the RPPA heatmaps: name_of_antibody.species_of_antibody.status_of_antibody. V - antibody validated; C - validation of antibody in progress; Q - antibody nonspecific; E – under evaluation; antibodies raised in M - mouse, G - goat, R - rabbit, or T - rat.

CN(C)c1cccc(Nc2cc(-c3ccccc3)nc(C3CCNCC3)n2)c1 [ARN22089, N1,N1-dimethyl-N3-(6-phenyl-2-(piperidin-4-yl)pyrimidin-4-yl)benzene-1,3-diamine]
RPPA p38.a.M.V Average: 0.905
RPPA p44.42.MAPK.R.V Average: 1.030
RPPA p53.R.C Average: 1.157
RPPA p70.S6K1.R.V Average: 1.027
RPPA p70.S6K_pT389.R.V Average: 0.996
RPPA p90RSK_pT573.R.C Average: 1.014
RPPA A.Raf.R.V (20W1): 1.011
RPPA ACC1.R.C (20W1): 0.890
RPPA ACLY_pS455.R.V (20W1): 1.224
RPPA ACSL1.R.V (20W1): 0.955
RPPA ACVRL1.R.C (20W1): 0.972
RPPA ADAR1.M.V (20W1): 1.307
RPPA ALKBH5.R.V (20W1): 0.885
RPPA AMPK.a2_pS345.R.V (20W1): 1.081
RPPA AMPKa.R.C (20W1): 1.032
RPPA AMPKa_pT172.R.C (20W1): 3.755
RPPA AR.R.V (20W1): 0.874
RPPA ARID1A.R.C (20W1): 1.514
RPPA ASNS.R.V (20W1): 0.742
RPPA ATM.R.V (20W1): 1.024
RPPA ATM_pS1981.R.V (20W1): 1.111
RPPA ATP5A.M.C (20W1): 1.018
RPPA ATP5H.R.V (20W1): 1.117
RPPA ATR.R.V (20W1): 1.005
RPPA ATRX.R.C (20W1): 1.357
RPPA ATR_pS428.R.C (20W1): 1.054
RPPA AceCS1.R.V (20W1): 0.907
RPPA Akt1.R.V (20W1): 0.811
RPPA Akt1_pS473.R.V (20W1): 1.162
RPPA Akt2.R.V (20W1): 0.873
RPPA Akt.R.V (20W1): 0.913
RPPA Akt_pS473.R.V (20W1): 0.795
RPPA Akt_pT308.R.V (20W1): 0.845
RPPA Ambra1_pS52.R.C (20W1): 1.101
RPPA Annexin.I.M.V (20W1): 0.972
RPPA Atg3.R.V (20W1): 0.914
RPPA Atg4B.R.C (20W1): 0.881
RPPA Atg5.R.C (20W1): 0.779
RPPA Atg7.R.V (20W1): 0.813
RPPA Aurora.A.R.C (20W1): 0.656
RPPA Aurora.ABC_pT288_pT232_pT198.R.C (20W1): 0.959
RPPA Aurora.B.R.V (20W1): 1.341
RPPA Axl.R.V (20W1): 0.908
RPPA B7.H3.R.C (20W1): 0.771
RPPA B7.H4.R.C (20W1): 1.034
RPPA B.Raf.R.C (20W1): 0.907
RPPA B.Raf_pS445.R.V (20W1): 0.934
RPPA BAP1.M.V (20W1): 0.877
RPPA BCL2A1.R.V (20W1): 0.987
RPPA BMK1.Erk5_pT218_Y220.R.V (20W1): 0.909
RPPA BRCA1.M.C (20W1): 1.231
RPPA BRD4.R.V (20W1): 1.228
RPPA Bad_pS112.R.V (20W1): 1.119
RPPA Bak.R.C (20W1): 1.000
RPPA Bax.R.V (20W1): 0.927
RPPA Bcl2.R.C (20W1): 1.064
RPPA Bcl.xL.R.V (20W1): 1.008
RPPA Beclin.R.C (20W1): 0.873
RPPA BiP.GRP78.M.C (20W1): 0.914
RPPA Bid.R.C (20W1): 0.954
RPPA Bim.R.V (20W1): 1.054
RPPA X4E.BP1.R.V (20W1): 1.323
RPPA X4E.BP1_pS65.R.V (20W1): 0.718
RPPA X4E.BP1_pT37_T46.R.V (20W1): 0.651
RPPA X14.3.3.zeta.R.V (20W1): 0.801
RPPA X14.3.3βR.V (20W1): 1.140
RPPA X14.3.3εM.C (20W1): 0.864
RPPA b.Actin.R.C (20W1): 1.078
RPPA b.Catenin.R.V (20W1): 0.844
RPPA b.Catenin_pT41_S45.R.V (20W1): 1.120
RPPA c.Abl.R.V (20W1): 1.161
RPPA c.IAP2.R.C (20W1): 1.080
RPPA A.Raf.R.V (20W3): 0.992
RPPA A.Raf_pS299.R.C (20W3): 0.987
RPPA ACC1.R.C (20W3): 0.779
RPPA ACC_pS79.R.V (20W3): 0.983
RPPA ACLY_pS455.R.V (20W3): 0.970
RPPA ACSL1.R.V (20W3): 0.853
RPPA ACVRL1.R.C (20W3): 0.984
RPPA ALKBH5.R.V (20W3): 0.991
RPPA AMPK.a2_pS345.R.V (20W3): 1.134
RPPA AMPKa.R.C (20W3): 1.122
RPPA AMPKa_pT172.R.C (20W3): 2.117
RPPA AR.R.V (20W3): 1.261
RPPA ARID1A.R.C (20W3): 1.115
RPPA ASNS.R.V (20W3): 1.296
RPPA ATM.R.V (20W3): 0.991
RPPA ATM_pS1981.R.V (20W3): 0.989
RPPA ATP5A.M.C (20W3): 0.955
RPPA ATP5H.R.V (20W3): 0.967
RPPA ATR.R.V (20W3): 0.989
RPPA ATR_pS428.R.C (20W3): 1.254
RPPA AceCS1.R.V (20W3): 0.994
RPPA Akt1.R.V (20W3): 1.129
RPPA Akt1_pS473.R.V (20W3): 1.135
RPPA Akt2.R.V (20W3): 1.035
RPPA Akt2_pS474.R.C (20W3): 1.166
RPPA Akt.R.V (20W3): 0.976
RPPA Akt_pS473.R.V (20W3): 1.265
RPPA Ambra1_pS52.R.C (20W3): 0.996
RPPA Annexin.I.M.V (20W3): 0.990
RPPA Annexin.VII.M.V (20W3): 0.885
RPPA Atg3.R.V (20W3): 1.076
RPPA Atg4B.R.C (20W3): 1.076
RPPA Atg5.R.C (20W3): 0.960
RPPA Aurora.A.R.C (20W3): 0.983
RPPA Aurora.ABC_pT288_pT232_pT198.R.C (20W3): 1.060
RPPA Axl.R.V (20W3): 1.478
RPPA B7.H3.R.C (20W3): 1.058
RPPA B7.H4.R.C (20W3): 1.107
RPPA B.Raf_pS445.R.V (20W3): 1.167
RPPA BAP1.M.V (20W3): 0.964
RPPA BMK1.Erk5_pT218_Y220.R.V (20W3): 0.926
RPPA BRCA1.M.C (20W3): 0.977
RPPA BRD4.R.V (20W3): 1.002
RPPA Bad_pS112.R.V (20W3): 1.163
RPPA Bax.R.V (20W3): 1.054
RPPA Bcl2.R.C (20W3): 0.975
RPPA Bcl.xL.R.V (20W3): 1.190
RPPA Beclin.R.C (20W3): 0.948
RPPA BiP.GRP78.M.C (20W3): 1.003
RPPA Bid.R.C (20W3): 0.943
RPPA Bim.R.V (20W3): 0.917
RPPA X4E.BP1.R.V (20W3): 1.550
RPPA X4E.BP1_pS65.R.V (20W3): 1.024
RPPA X4E.BP1_pT37_T46.R.V (20W3): 1.034
RPPA X14.3.3βR.V (20W3): 0.902
RPPA X14.3.3εM.C (20W3): 0.973
RPPA b.Actin.R.C (20W3): 0.977
RPPA b.Catenin.R.V (20W3): 1.021
RPPA b.Catenin_pT41_S45.R.V (20W3): 1.082
RPPA c.Abl.R.V (20W3): 1.234
RPPA c.Abl_pY412.R.C (20W3): 1.114
C.Raf.R.C RPPA level (Average): 1.061
CA9.R.C RPPA level (Average): 0.925
CD2.M.C RPPA level (Average): 0.936
CD4.R.V RPPA level (Average): 1.006
CD5.M.C RPPA level (Average): 0.966
CD20.R.C RPPA level (Average): 1.099
CD31.M.V RPPA level (Average): 0.988
CD38.R.C RPPA level (Average): 1.131
CD44.R.C RPPA level (Average): 0.982
CD45.M.V RPPA level (Average): 0.957
CD49b.M.V RPPA level (Average): 0.989
CD68.M.C RPPA level (Average): 0.999
CD74.M.V RPPA level (Average): 0.998
CD134.R.V RPPA level (Average): 0.994
CD171.M.V RPPA level (Average): 0.762
CDK1_pT14.R.C RPPA level (Average): 1.056
CDK9.R.V RPPA level (Average): 0.964
CDKN2A.R.C RPPA level (Average): 1.024
CDT1.R.V RPPA level (Average): 0.971
CENP.A.R.V RPPA level (Average): 1.548
CHD1L.R.V RPPA level (Average): 0.954
CIITA.R.C RPPA level (Average): 1.002
COG3.R.V RPPA level (Average): 1.098
CRABP1.R.C RPPA level (Average): 1.025
CRABP2.R.V RPPA level (Average): 0.977
CREB_pS133.R.C RPPA level (Average): 1.270
CSK.R.C RPPA level (Average): 0.987
Calnexin.R.V RPPA level (Average): 0.956
Caspase.7.cleaved..R.C RPPA level (Average): 0.982
Caspase.8.M.Q RPPA level (Average): 0.929
